Holding throughout (format): in vivo, BALB/cA Jcl-nu/nu mice
Test [1] concerns Human ovarian cancer A2780 cell line. As to the kind of experiment: Potentiation of antitumor effect of paclitaxel, A2780 subcutaneous implant in nude mice (Test Example 1). The procedure: Human ovarian cancer A2780 cell line was subcutaneously implanted into the right flank of 7-week-old male BALB/cA Jcl-nu/nu mice. After the implant, the length (mm) and the width (mm) of the tumor were measured, and the tumor volume (TV) was calculated. Thereafter, the mice were divided into groups so that the average TV is equalized in each group. The day of grouping (n=5) is referred to as Day 0. […] Test liquids for the groups receiving only Compound-I were prepared by diluting Compound-I with 0.5% hydroxypropyl methylcellulose (HPMC) so as to enable administration at a Compound-I dose of 8 mg/kg/day, 16 mg/kg/day, and 24 mg/kg/day. […] In the groups receiving the two drugs, Compound-I was administered at doses of 8 mg/kg/day, 16 mg/kg/day, and 24 mg/kg/day, and paclitaxel was administered at a dose of 60 mg/kg/day. […] In the figure, the asterisk represents a result having a statistically significant difference compared with the single-drug administration group. FIG. 1 and Table 10 show the results.

For test [2], the system named is Human stomach cancer cell line (4-1ST). Kind of test: Potentiation of antitumor effect of TS-1, 4-1ST subcutaneous implant in nude mice (Test Example 8). The procedure:
(§1) As an index of antitumor effect, the TV at Day 15 was measured for each of the drug administration groups, and the relative tumor volume (RTV) relative to Day 1 and T/C (%) were calculated by the following formulas to evaluate the antitumor effect. […] In the figure, the asterisk represents a result having a statistically significant difference compared with the single-drug administration group.
(§2) FIG. 1 and Table 10 show the results. TV (mm^3)=(length×width^2)/2 RTV=(TV at Day 15)/(TV at Day 1) T/C(%)=(average RTV value of the test liquid administration group)/(average RTV value of the control group)×100
Human stomach cancer cell line (4-1ST) was subcutaneously implanted into the right flank of 6-week-old male BALB/cA Jcl-nu/nu mice, and was used in the same manner as in Test Example 1.
TS-1 was prepared by mixing FT (tegafur; Taiho Pharmaceutical Co., Ltd.), CDHP (gimeracil; Taiho Pharmaceutical Co., Ltd.) and Oxo (oteracil potassium; Taiho Pharmaceutical Co., Ltd.) at a molar ratio of 1:0.4:1, adding a 0.5% (w/v) HPMC aqueous solution to the mixture at an FT concentration of 1.66 mg/mL, and subjecting the mixture to a ultrasonic treatment to obtain an even suspension (an administration liquid having a double concentration of the liquid in the group of 8.3 mg/kg/day dose). The suspension was diluted two-fold with a 0.5% (w/v) HPMC aqueous solution to a concentration of 0.83 mg/mL, thereby yielding an administration liquid to be used for the group of 8.3 mg/kg/day dose. Further, the test liquid of Compound-I was prepared by adjusting its dose to 16 and 24 mg/kg/day.
Compound-I and TS-1 were orally administered once a day for 14 days from Day 1. In the combined administration groups, Compound-I at a dose of 16 and 24 mg/kg/day, and TS-1 at a dose of 8.3 mg/kg/day were administered, and the evaluation was performed in the same manner as in Test Example 1. FIGS. 15A and 15B, and Table 17 show the results.
In the same manner as in Test Example 7, the effect of the combined administration was also statistically determined. In the figure and the table, the asterisk represents a result having a statistically significant difference compared with the single-drug administration group.

For test [3], the system named is Human ovarian cancer cell line (A2780). As to the kind of experiment: Potentiation of antitumor effect of doxorubicin, A2780 subcutaneous implant in nude mice (Test Example 6). The procedure: In the groups receiving only Compound-I, the test liquid was prepared by diluting Compound-I with 0.5% HPMC to enable administration at a Compound-I dose of 16 mg/kg/day. […] The effect of the combined administration was also statistically determined in the same manner as in Test Example 1.

Test [4] shares this test system. As to the kind of experiment: Potentiation of antitumor effect of irinotecan, A2780 subcutaneous implant in nude mice (Test Example 5). The following applies: compound-I 16 mg/kg/day p.o. day 1-14. How it is done:
As an index of antitumor effect, the TV at Day 15 was measured for each of the drug administration groups, and the relative tumor volume (RTV) relative to Day 1 and T/C (%) were calculated by the following formulas to evaluate the antitumor effect.
TV (mm^3)=(length×width^2)/2 RTV=(TV at Day 15)/(TV at Day 1) T/C(%)=(average RTV value of the test liquid administration group)/(average RTV value of the control group)×100
Human ovarian cancer cell line (A2780) was subcutaneously implanted into the right flank of 7-week-old male BALB/cA Jcl-nu/nu mice, and was used in the same manner as in Test Example 1. […] Further, the test liquid of Compound-I was prepared by adjusting its dose to 16 mg/kg/day.
The effect of the combined administration was also statistically determined in the same manner as in Test Example 1. […] FIG. 9 and Table 14 show the results. Further, the change in the body weight over time was evaluated as an index of toxicity in the same manner as in Test Example 1.

Test [5] deals with Human stomach cancer cell line (NCI-N87). Kind of test: Potentiation of antitumor effect of everolimus, NCI-N87 subcutaneous implant in nude mice (Test Example 7). The following applies: compound-I 16 mg/kg/day p.o. day 1-14. How it is done:
as §1, §2
Human stomach cancer cell line (NCI-N87) was subcutaneously implanted into the right flank of 7-week-old male BALB/cA Jcl-nu/nu mice, and was used in the same manner as in Test Example 1.
In the group receiving only everolimus (IS Chemical Technology), the test liquid was prepared to enable administration at an everolimus dose of 5 mg/kg/day. A vehicle of 5% ethyl alcohol/5% PEG400/4% Tween 20/86% distilled water was used. In the groups receiving only Compound-I, the test liquid was prepared by diluting Compound-I with 0.5% HPMC to enable administration at a Compound-I dose of 16 mg/kg/day. In the combined administration group, Compound-I was administered at a dose of 16 mg/kg/day, and everolimus was administered at a dose of 5 mg/kg/day. Both Compound-I and everolimus were orally administered once a day for 14 days from Day 1, and the evaluation was performed in the same manner as in Test Example 1. FIG. 13 and Table 16 show the results.
In the figure and the table, the asterisk represents a result having a statistically significant difference compared with the single-drug administration group.

Setting [6] is: compound-I 8 mg/kg/day p.o. day 1-14.
Where [7] appears, read: compound-I 16 mg/kg/day p.o. day 1-14.
Setting [8] is: compound-I 24 mg/kg/day p.o. day 1-14.

As for `CC1(O)CC(N)(c2ccc(-c3nc4n(c3-c3ccccc3)COc3ccncc3-4)cc2)C1` (stereo not drawn) [compound-I, trans-3-amino-1-methyl-3-(4-(3-phenyl-5H-imidazo[1,2-c]pyrido[3,4-e][1,3]oxazin-2-yl)phenyl)cyclobutanol], the “RTV day 15 Mean ± SD” value in test [1] (setting [6]) worked out at 23.66 ± 9.16; in test [1] (setting [7]), 19.91 ± 1.41; in test [1] (setting [8]), 18.94 ± 5.52; in test [2] (setting [7]), 4.53 ± 0.59; in test [2] (setting [8]), 3.83 ± 0.48; in test [3] (setting [7]), 22.17 ± 7.20. Further, the “RTV day 15 Mean ± SD” value is recorded as 19.16 ± 2.60 in test [4] and 1.19 ± 0.27 in test [5]. The “T/C (%)” value in test [1] (setting [6]) came out at 92%; in test [1] (setting [7]), 77%; in test [1] (setting [8]) it was 74%; in test [2] (setting [7]) it was 38.1%; in test [2] (setting [8]) it was 32.2%; in test [3] (compound-I 16 mg/kg/day day 1-14), 80%. In addition, the “T/C (%)” value in test [4] is reported as 63%; in test [5], 43%.

Source of the values: patent US9375434B2, “Antitumor effect potentiator composed of imidazooxazine compound” (Taiho Pharmaceutical Co., Ltd., priority 2012, dated 2016).
